Measured values: patent US20250380697A1, “ISOXAZOLINE DERIVATIVE COMPOUND AND INSECTICIDAL COMPOSITION COMPRISING SAME” (KYUNG NONG CORPORATION, priority 2022, published 2025)

Key:
Format in all cases: in vivo
Grapholita molesta = test: Pesticidal activity against Grapholita molesta, spray method; conditions: spray on apples, counted 24, 72, 192 hours, time not given, read-out: mortality rate, Grapholita molesta
Procedure: The pesticide composition where the compound of Synthesis Example 2 was diluted (the solvent=distilled water+acetone 50,000 mg/L+Triton X-100 100 mg/L) was directly sprayed on apples using a CO2 Sprayer® [a nozzle type: Teejet8002VS (a flat fan type), pressure: 800 psi), and then apples were collected 1 hour later, and Grapholita molesta larvae were repeatedly inoculated 5-6 times, 3 per apple. In particular, the Grapholita molesta larvae were collected in the R&D Center of Kyung Nong Co., Ltd. (Gyeongju, Korea), and they were used after acclimatization indoors for 24 hours. Then, the Grapholita molesta larvae were stored under the conditions of 16 hours of light and 8 hours of dark, 25±1° C. and relative humidity of 50-60%, and the number of live Grapholita molesta larvae was counted 24, 72, and 192 hours after the inoculation. Thereafter, the larvae mortality rate was calculated in the same manner as in Test Example 1 above.

Plutella xylostella = test: Pesticidal activity against Plutella xylostella, leaf-dipping method; conditions: 48 h, read-out: mortality rate, Plutella xylostella
Rhopobota naevana = test: Pesticidal activity against Rhopobota naevana, spray method; conditions: spray on apple leaves, counted 24, 48, 72 hours, time not given, read-out: mortality rate, Rhopobota naevana
Procedure: Apple leaves were collected along with the stems, and the leaves of 3-4 base were cut into 5 cm×5 cm×5 cm pieces and placed in a tray oasis submerged in water. Then, the pesticide composition where the compound of Synthesis Example 2 was diluted (the solvent=distilled water+acetone 50,000 mg/L+Triton X-100 100 mg/L) was loaded into a 150 mL small sprayer and sprayed to the apple leaves, and 1 hour thereafter, the […] larvae were repeatedly inoculated 5-6 times, one per apple leaf. In particular, the Rhopobota naevana larvae were collected in the R&D Center of Kyung Nong Co., Ltd. (Gyeongju, Korea), and they were used after acclimatization indoors for 24 hours. Then, the Rhopobota naevana larvae were stored under the conditions of 16 hours of light and 8 hours of dark, 25±1° C. and relative humidity of 50-60%, and the number of live Rhopobota naevana larvae was counted 24, 48, and 72 hours after the inoculation. Thereafter, the larvae mortality rate was calculated in the same manner as in Test Example 1 above.

Lymantria dispar = test: Pesticidal activity against Lymantria dispar, leaf-dipping method; conditions: maple leaf-dipping, counted 24, 48, 72 hours, time not given, read-out: mortality rate, Lymantria dispar
Procedure: Maple leaves were dipped in the pesticide composition where the compound of Synthesis Example 2 was diluted (the solvent=distilled water+acetone 50,000 mg/L+Triton X-100 100 mg/L) for 30 seconds, and sufficiently shade-dried by placing them on aluminum foil. Then, in order to maintain the humidity of the shade-dried maple leaves, they were placed on a petri dish (9.0 cm in diameter) covered with a filter paper (9.0 cm in diameter) treated with distilled water, and repeatedly inoculated 4 times of five early third instar larvae of Lymantria dispar. In particular, Lymantria dispar larvae used were collected in Jukjang-myeon, Buk-gu, Pohang-si, Gyeongsangbuk-do, Korea. Then, Lymantria dispar larvae were stored under 16 hours of light: 8 hours of dark, 25±1° C., and 50-60% relative humidity, and the number of Lymantria dispar larvae was counted 24, 48, and 72 hours after inoculation. Thereafter, the larvae mortality rate was calculated in the same manner as in Test Example 1 above.

Helicoverpa armigera = test: Pesticidal activity against Helicoverpa armigera, leaf-dipping method; conditions: counted 24, 48, 72 hours, time not given, read-out: mortality rate, Helicoverpa armigera
Procedure: Cabbage (Daiya) leaves were cut into pieces with a diameter of 5.8 cm, dipped in the pesticide composition where the compound of Synthesis Example 2 was diluted (the solvent=distilled water+acetone 50,000 mg/L+Triton X-100 100 mg/L) for 30 seconds, and sufficiently shade-dried. Then, the shade-dried cabbage leaves were placed in a petri dish (8.8 cm in diameter) covered with a filter paper and repeatedly inoculated 3-5 times with third instar larvae of Helicoverpa armigera, 10 larvae per inoculation. In this case, Helicoverpa armigera larvae used were those purchased from the Andong National University (Korea). Then, the Helicoverpa armigera larvae were stored under the conditions of 16 hours of light and 8 hours of dark, 25±1° C., and relative humidity of 50-60%, and the number of live Helicoverpa armigera larvae was counted 24, 48, and 72 hours after the inoculation. Thereafter, the larvae mortality rate was calculated in the same manner as in Test Example 1 above.

Maruca vitrta = test: Pesticidal activity against Maruca vitrta, artificial feed-dipping method; conditions: counted 24, 48, 72 hours, time not given
Procedure: Cabbage (Daiya) leaves were cut into pieces with a size of 1 cm×1 cm×1 cm, dipped in the pesticide composition where the compound of Synthesis Example 2 was diluted (the solvent=distilled water+acetone 50,000 mg/L+Triton X-100 100 mg/L) for 30 seconds, and then sufficiently shade-dried by placing them on aluminum foil. In this case, the artificial feed used was prepared by a process, in which (1) 13 g of agar powder and 625 mL of secondary distilled water were added into a 1 L beaker and boiled in the microwave for 10 minutes; (2) the agar boiled in the microwave was added into a blender and then 75 g of soybean powder, 20 g of red bean powder, 10 g of malt powder, and 175 mL of secondary distilled water were added thereto and mixed together; and (3) after the resulting mixture was cooled to 50° C., 5 g of a vitamin mixture, 4 g of ascorbic acid, 1 g of sorbic acid, 1 g of β-sitosterol, 10 g of glucose, 10 g of cellulose, 3 g of cholesterol, 1.5 g of methyl-p-hydroxybenzoate, 0.5 g of aureomycin, and 0.4 g of fumidil B were added thereto, mixed together, and then thoroughly cooled. Before placing the artificial feed pieces in a petri dish (¢90 mm×15 mm), parafilm (5.1 cm×5.1 cm) was placed on top of a distilled water-treated filter paper (Ø90 mm) to maintain humidity, and the artificial feed pieces were placed on top of the parafilm.
Then, the second to the third instar larvae of Maruca vitrta were repeatedly inoculated 3-5 times, 10 larvae per inoculation. In this case, the Maruca vitrta larvae used were those purchased from the Bio Utilization Institute (Andong, Korea). Then, the Maruca vitrta larvae were stored under 16 hours of light: 8 hours of dark, 25±1° C., and 50-60% relative humidity, and the number of live Maruca vitrta larvae was counted 24, 48, and 72 hours after inoculation. Thereafter, the larvae mortality rate was calculated in the same manner as in Test Example 1 above.

Row | SMILES | mortality at 10 ppm (Grapholita molesta) [%] | mortality at 0.1 ppm (Plutella xylostella) [%] | mortality at 1 ppm (Plutella xylostella) [%] | mortality at 10 ppm (Plutella xylostella) [%] | mortality at 0.1 ppm (Rhopobota naevana) [%] | mortality at 1 ppm (Rhopobota naevana) [%] | mortality at 0.01 ppm (Lymantria dispar) [%] | mortality at 0.1 ppm (Lymantria dispar) [%] | mortality at 0.1 ppm (Helicoverpa armigera) [%] | mortality rate, Maruca vitrta (Maruca vitrta; 0.1 ppm) [%] | mortality rate, Maruca vitrta (Maruca vitrta; 1 ppm) [%]
1 | Cc1cc(C2=NOC(c3cc(Cl)cc(C(F)(F)F)c3)(C(F)(F)F)C2)ccc1C(=O)NC(=O)C1CC1 (racemic) [Synthesis Example 2] | 85 | 100 | 100 | 100 | 100 | 100 | 74 | 100 | 100 | 100 | 100
2 | CON=CNC(=O)c1ccc(C2=NOC(c3cc(Cl)cc(Cl)c3)(C(F)(F)F)C2)cc1C (stereo not drawn) [Comparative Example 1, fluxametamide] | 85 | 100 | 100 | 100 | 83 | 100 | 5 | 95 | 78 | 23 | 90
3 | CNC(=O)c1cc(Cl)cc(C)c1NC(=O)c1cc(Br)nn1-c1ncccc1Cl [Comparative Example 2, chlorantraniliprole] | 85 | 21 | 100 | 100 | 100 | 100 | 0 | 10 | 31 | 33 | 83
